Results as given in patent US20110165173A1, “THERAPEUTIC AGENT AND DETECTION REAGENT FOR ARTERIOSCLEROTIC DISEASE WHICH TARGETS FOR SALUSIN” (PROTEINEXPRESS CO., LTD., priority 2007, published 2011).

Tests used:
ACAT activity = ACAT activity assay by liposome reconstitution method in human monocyte-derived macrophages; assay type: cell-based; settings: 0.6 nM during 7-day culture
From the text: For ACAT activity assay, the liposome reconstitution method was used. This method involves the use of a system in which the ACAT-1 protein present in the endoplasmic reticulum is reconstituted into liposomes with the use of mixed micelles comprising cholesterol/phosphatidylcholine, thereby achieving a saturated concentration level of cholesterol that can be used as an ACAT-1 substrate [Cheng D et al., J Biol Chem. 1995; 270: 685-695.]. In the case of the conventionally used microsome method, cholesterol that endogenously exists in the endoplasmic reticulum has been used as a substrate. However, in general, the endoplasmic reticulum membrane is poor in cholesterol. Therefore, it is thought that the saturated level of cholesterol capable of serving as an ACAT substrate has not been achieved, resulting in underestimation of ACAT activity. Herein, ACAT activity was assayed by adding another substrate, [^14C]oleoyl-CoA, to a reaction system and assaying the cholesterol [^14C]oleate generated through the ACAT reaction (FIG. 4).
Peripheral blood human monocytes (4×10^6 cells/2 mL) were seeded on 4 to 6 6-cm dishes and cultured for 7 days so as to differentiate into macrophages. At such time, salusin-α or salusin-β was added during culture. […] The protein concentration of the homogenized cell extraction solution was quantitatively assayed by the BCA method (Pierce). […]

CD36 = CD36 expression by macrophages of treated apoE-deficient mice (Western blotting); assay type: in vivo; settings: four weeks
Description: (§1) 13-week-old male apoE-deficient mice (72 mice) were divided into the following 6 groups: (i) physiological salt saline (control); (ii) salusin-α (0.6 nmol/kg/h); (iii) salusin-β (0.6 nmol/kg/h); (iv) salusin-α (0.6 nmol/kg/h)+anti-salusin-α serum (1.4 μg/kg/h); (v) salusin-β (0.6 nmol/kg/h)+anti-salusin-β serum (1.4 μg/kg/h); and (vi) anti-salusin-β serum (1.4 μg/kg/h). The mice were subjected to continuous subcutaneous administration with the use of an osmotic mini-pump for 4 to 8 weeks. The osmotic mini-pump and the solution contained therein were changed every week.
(§2) Macrophages were collected as in the experiment in (1), and the protein expression of the gene involved in foaming of macrophages (i.e., scavenger receptors CD36 and SR-A capable of recognizing oxidized LDL, intracellular cholesterol esterification enzyme ACAT1, and ABCA1, ABCG1, and SR-BI, which are involved in cholesterol efflux) was analyzed by Western blotting. For the internal standard of the macrophage function, β-actin expression was also examined. For quantification of the band concentration, Analyzer (ATTO Corporation, Tokyo) was used.

[1] = tested on: macrophages of apoE-deficient mice; test: Cholesterol efflux caused by HDL in macrophages collected from treated apoE-deficient mice; assay type: in vivo; settings: 0.6 nmol/kg/h, four weeks; P<0.01
Description: as §1
Macrophages collected in the above manner were kept warm for 24 hours in a culture solution prepared as above containing oxidized LDL (10 μg/ml) labeled with [^3H]cholesterol (74 kBq/mL) and washed twice with PBS. Thereafter, the macrophages were kept warm for 16 hours in an RPMI1640 solution containing 0.1% BSA to which HDL (15 μg/mL) had been added. The culture solution was centrifuged at 15,000 rpm for 10 minutes so as to remove the residues therefrom. […] The radioactivity of [^3H]cholesterol in the culture solution and that in the cell extraction solution were assayed: cholesterol efflux (%)=the radioactivity of [^3H]cholesterol in the culture solution/the radioactivity of [^3H]cholesterol in the culture solution+the radioactivity of [^3H]cholesterol in the cell extraction solution×100

ABCA1 = ABCA1 expression by macrophages of treated apoE-deficient mice (Western blotting); assay type: in vivo; settings: 0.6 nmol/kg/h, four weeks; range given jointly for ABCA1, ABCG1, SR-BI; P<0.05
Description: as §1, §2

ABCG1 = ABCG1 expression by macrophages of treated apoE-deficient mice (Western blotting); assay type: in vivo; settings: 0.6 nmol/kg/h, four weeks; range given jointly for ABCA1, ABCG1, SR-BI; P<0.05
Description: as §1, §2

SR-BI = SR-BI expression by macrophages of treated apoE-deficient mice (Western blotting); assay type: in vivo; settings: 0.6 nmol/kg/h, four weeks; range given jointly for ABCA1, ABCG1, SR-BI; P<0.05
Description: as §1, §2

salusin-β: peptide (SEQ ID NO: 3) comprising 20 amino acid residues, generated by processing from preprosalusin (AIFIFIRWLLKLGHHGRAPP; listed as Homo sapiens) [reference compound]
ACAT activity relative to control (ACAT activity): 1.8 times
CD36 protein expression relative to control level (CD36; 0.6 nmol/kg/h, range given jointly for CD36, SR-A, ACAT1, P<0.05): 1.5 to 2.8 times

salusin-α: peptide (SEQ ID NO: 1) comprising 28 amino acid residues, generated by processing from preprosalusin (SGALPPAPAAPRPALRAQRAGPAGPGAK; listed as Homo sapiens)
ACAT activity, percent of that of the control (ACAT activity): 50%
cholesterol efflux caused by HDL relative to control [1]: approximately 2 times
CD36 protein expression (CD36; salusin-α 0.6 nmol/kg/h): did not influence
ABCA1 protein expression relative to initial level (ABCA1): 1.5 to 2 times
ABCG1 protein expression relative to initial level (ABCG1): 1.5 to 2 times
SR-BI protein expression relative to initial level (SR-BI): 1.5 to 2 times
